Key:
[1] = system: RS4;11 cells; assay: Cell viability assay (CellTiter-Glo) in RS4;11 cell line; type: cell-based; conditions: 24 hours, 10% Human Serum, 50% decrease in cell viability
Summary of the method: (§1)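 RS4;11 or Molt-4 cells (3000 per well) in RPMI 1640 with 10% human serum treated with compound for 24 h, 5% CO2. Viability measured by CellTiter-Glo as percent of control; EC50 from sigmoidal dose-response curves.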

[2] = system: Molt-4 cells; assay: Cell viability counter screen assay (CellTiter-Glo) in Molt-4 cells; type: cell-based; conditions: 24 hours, 10% Human Serum, 50% decrease in cell viability
Summary of the method: as §1

SMILES | EC50 [1] | EC50 [2]
CC1(C)CC(c2ccc(Cl)cc2)=C2CN3CCN(c4ccc(C(=O)NS(=O)(=O)c5ccc(NCC6CCOCC6)c([N+](=O)[O-])c5)c(N5CCCOc6nc7[nH]ccc7cc65)c4)C[C@H]3COCCCO[C@@H]2C1 [Example 1, 4-((4aS,10aR)-14-(4-chlorophenyl)-12,12-dimethyl-1,2,4a,5,8,9,10a,11,13,15-decahydro-7H,12H-benzo[f]pyrazino[2,1-c][1,8]dioxa[4]azacycloundecin-3(4H)-yl)-2-(3,4-dihydro-2H-pyrrolo[3′,2′:5,6]pyrido[2,3-b][1,4]oxazepin-1(7H)-yl)-N-((3-nitro-4-(((tetrahydro-2H-pyran-4-yl)methyl)amino)phenyl)sulfonyl)benzamide] | 4.01 nM | > 10000 nM
CC1(C)CC(c2ccc(Cl)cc2)=C2CN3CCN(c4ccc(C(=O)NS(=O)(=O)c5ccc(NC[C@H]6CC[C@](C)(O)CC6)c([N+](=O)[O-])c5)c(N5CCCOc6nc7[nH]ccc7cc65)c4)C[C@H]3COCCCO[C@@H]2C1 [Example 32, 4-((4aS,10aR)-14-(4-chlorophenyl)-12,12-dimethyl-1,2,4a,5,8,9,10a,11,13,15-decahydro-7H,12H-benzo[f]pyrazino[2,1-c][1,8]dioxa[4]azacycloundecin-3(4H)-yl)-2-(3,4-dihydro-2H-pyrrolo[3′,2′:5,6]pyrido[2,3-b][1,4]oxazepin-1(7H)-yl)-N-((4-((((1r,4r)-4-hydroxy-4-methylcyclohexyl)methyl)amino)-3-nitrophenyl)sulfonyl)benzamide] | 1.67 nM | 9570 nM

Further compounds by falling EC50 [1], results first:

EC50 [1] | SMILES | EC50 [2]
19 nM | CC1(C)CC(c2ccc(Cl)cc2)=C2CN3CCN(c4ccc(C(=O)NS(=O)(=O)c5cnc(OC[C@]6(F)CC[C@H](N7CCOCC7)CC6)c(Cl)c5)c(N5CCCOc6nc7[nH]ccc7cc65)c4)C[C@H]3COCCCO[C@@H]2C1 [Example 11, N-((5-chloro-6-(((1r,4r)-1-fluoro-4-morpholinocyclohexyl)methoxy)pyridin-3-yl)sulfonyl)-4-((4aS,10aR)-14-(4-chlorophenyl)-12,12-dimethyl-1,2,4a,5,8,9,10a, 11,13,15-decahydro-7H,12H-benzo[f]pyrazino[2,1-c][1,8]dioxa[4]azacycloundecin-3(4H)-yl)-2-(3,4-dihydro-2H-pyrrolo[3′,2′:5,6]pyrido[2,3-b][1,4]oxazepin-1(7H)-yl)benzamide] | 3710 nM
5.64 nM | CC1(C)CC(c2ccc(Cl)cc2)=C2CN3CCN(c4ccc(C(=O)NS(=O)(=O)c5ccc(NC[C@H]6C[C@](O)(C7CCC7)C6)c([N+](=O)[O-])c5)c(N5CCCOc6nc7[nH]ccc7cc65)c4)C[C@H]3COCCCO[C@@H]2C1 [Example 15, 4-((4aS,10aR)-14-(4-chlorophenyl)-12,12-dimethyl-1,2,4a,5,8,9,10a,11,13,15-decahydro-7H,12H-benzo[f]pyrazino[2,1-c][1,8]dioxa[4]azacycloundecin-3(4H)-yl)-2-(3,4-dihydro-2H-pyrrolo[3′,2′:5,6]pyrido[2,3-h][1,4]oxazepin-1(7H)-yl)-N-((4-((((1s,3s)-1-hydroxy-[1,1′-bi(cyclobutan)]-3-yl)methyl)amino)-3-nitrophenyl)sulfonyl)benzamide] | 2550 nM
0.329 nM | CC1(C)CC(c2ccc(Cl)cc2)=C2CN3CCN(c4ccc(C(=O)NS(=O)(=O)c5ccc(NC[C@@H]6CC[C@@H](O)CO6)c([N+](=O)[O-])c5)c(N5CCCOc6nc7[nH]ccc7cc65)c4)C[C@H]3COCCCO[C@@H]2C1 [Example 27, 4-((4aS,10aR)-14-(4-chlorophenyl)-12,12-dimethyl-1,2,4a,5,8,9,10a,11,13,15-decahydro-7H,12H-benzo[f]pyrazino[2,1-c][1,8]dioxa[4]azacycloundecin-3(4H)-yl)-2-(3,4-dihydro-2H-pyrrolo[3′,2′:5,6]pyrido[2,3-h][1,4]oxazepin-1(7H)-yl)-N-((4-((((2S,5R)-5-hydroxytetrahydro-2H-pyran-2-yl)methyl)amino)-3-nitrophenyl)sulfonyl)benzamide] | 535 nM

Source: patent US11964990B2, “1,3,4,7-tetrahydro-2H-pyrrolo[3′,2′:5,6]pyrido[2,3-b][1,4]oxazepine bcl-2 inhibitors” (AbbVie Inc., priority 2022, dated 2024)
